The target in test [1] is T1, Squalene synthase (Rattus norvegicus, UniProt Q02769).
T1 sequence (Q02769 whole entry): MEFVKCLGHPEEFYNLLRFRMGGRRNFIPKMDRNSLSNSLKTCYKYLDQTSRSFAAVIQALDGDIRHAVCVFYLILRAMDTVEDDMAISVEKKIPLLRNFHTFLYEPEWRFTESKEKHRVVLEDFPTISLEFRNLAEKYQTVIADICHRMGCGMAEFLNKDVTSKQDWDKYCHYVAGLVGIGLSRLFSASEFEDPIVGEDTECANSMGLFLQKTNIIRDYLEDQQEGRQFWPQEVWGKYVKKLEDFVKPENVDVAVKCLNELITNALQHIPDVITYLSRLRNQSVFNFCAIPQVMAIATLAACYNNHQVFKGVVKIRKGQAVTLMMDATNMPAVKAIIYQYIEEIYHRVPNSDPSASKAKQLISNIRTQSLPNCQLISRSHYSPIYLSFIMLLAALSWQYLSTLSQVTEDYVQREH
Briefly: Inhibitory concentration against mammalian Squalene synthase.

The nature of test [2]: Lipid lowering ability after intravenous administration of 10 mg/Kg single dose. The test is classed as functional.
Test [3] in a line: Percent decrease in serum cholesterol levels after intravenous administration of 1 mg/Kg dose for 7 days. The test is classed as functional.
The nature of test [4]: Effective dose required for lipid lowering property in marmosets by oral administration for 7 days. As to conditions: 168 h. In kind it is functional.

pIC50: −log10 of the molar value. Bounds are passed on as bounds.

The results in this text go back to ChEMBL document CHEMBL1150033, “The squalestatins: effects of changes at the allylic centre in the C1 sidechain” (Bioorg Med Chem Lett, 1994).

One may read the pIC50 as the negative decadic logarithm of the IC50, by convention in mol/L. Lower therefore signals a large IC50. Take `C=C(CC[C@]12O[C@H](C(=O)O)[C@@](O)(C(=O)O)[C@](C(=O)O)(O1)[C@H](O)[C@H]2O)[C@@H](O)[C@H](C)Cc1ccccc1`: in test [1], the pIC50 was 6.60. On the same count and under the same terms, under `C=C(CC[C@]12O[C@H](C(=O)O)[C@@](O)(C(=O)O)[C@](C(=O)O)(O1)[C@H](O)[C@H]2O)[C@@H](OC)[C@H](C)Cc1ccccc1` stands 6.30; under `C=CCO[C@H](C(=C)CC[C@]12O[C@H](C(=O)O)[C@@](O)(C(=O)O)[C@](C(=O)O)(O1)[C@H](O)[C@H]2O)[C@H](C)Cc1ccccc1`, 7.57; under `C=C(CC[C@]12O[C@H](C(=O)O)[C@@](O)(C(=O)O)[C@](C(=O)O)(O1)[C@H](O)[C@H]2O)[C@H](NC(C)=O)[C@H](C)Cc1ccccc1`, under 5.00.

The molecule `C=C(CC[C@]12O[C@H](C(=O)O)[C@@](O)(C(=O)O)[C@](C(=O)O)(O1)[C@H](O)[C@H]2O)[C@@H](OC(=O)C(C)(C)C)[C@H](C)Cc1ccccc1` showed a pIC50 in test [1] of 5.64.

On to `C=C(CC[C@]12O[C@H](C(=O)O)[C@@](O)(C(=O)O)[C@](C(=O)O)(O1)[C@H](O)[C@H]2O)[C@@H](OC(C)=O)[C@H](C)Cc1ccccc1`, for which the Lowering in test [2] was 30%. Consider `C=C(CC[C@]12O[C@H](C(=O)O)[C@@](O)(C(=O)O)[C@](C(=O)O)(O1)[C@H](OC(=O)/C=C/[C@@H](C)C[C@@H](C)CC)[C@H]2O)[C@@H](O)[C@H](C)Cc1ccccc1`, for which the negative-log IC50 (pIC50) in test [1] is 8.30. On to `C=C(CC[C@]12O[C@H](C(=O)O)[C@@](O)(C(=O)O)[C@](C(=O)O)(O1)[C@H](O)[C@H]2O)[C@@H](OC(=O)c1ccccc1)[C@H](C)Cc1ccccc1`, for which the pIC50 in test [1] was 6.27. The same measure, in the same setting: as for `C=C(CC[C@]12O[C@H](C(=O)O)[C@@](O)(C(=O)O)[C@](C(=O)O)(O1)[C@H](O)[C@H]2O)[C@@H](OCC)[C@H](C)Cc1ccccc1`, the figure is 7.40. The same measure, in the same setting: under `C#CCO[C@H](C(=C)CC[C@]12O[C@H](C(=O)O)[C@@](O)(C(=O)O)[C@](C(=O)O)(O1)[C@H](O)[C@H]2O)[C@H](C)Cc1ccccc1` stands 5.92; under `CC(=O)NC/C(=C\[C@H](C)Cc1ccccc1)CC[C@]12O[C@H](C(=O)O)[C@@](O)(C(=O)O)[C@](C(=O)O)(O1)[C@H](O)[C@H]2O`, under 5.00; under `C=C(CC[C@]12O[C@H](C(=O)O)[C@@](O)(C(=O)O)[C@](C(=O)O)(O1)[C@H](O)[C@H]2O)[C@@H](OCCC)[C@H](C)Cc1ccccc1`, 6.22. The same measure, in the same setting: as for `C=C(CC[C@]12O[C@H](C(=O)O)[C@@](O)(C(=O)O)[C@](C(=O)O)(O1)[C@H](O)[C@H]2O)[C@@H](OC(C)C)[C@H](C)Cc1ccccc1`, the figure is 7.31; as for `C=C(CC[C@]12O[C@H](C(=O)O)[C@@](O)(C(=O)O)[C@](C(=O)O)(O1)[C@H](O)[C@H]2O)[C@@H](OCc1ccccc1)[C@H](C)Cc1ccccc1`, 5.85; as for `C=C(CC[C@]12O[C@H](C(=O)O)[C@@](O)(C(=O)O)[C@](C(=O)O)(O1)[C@H](O)[C@H]2O)[C@@H](OCC1CC1)[C@H](C)Cc1ccccc1`, 7.48. `C=C(CC[C@]12O[C@H](C(=O)O)[C@@](O)(C(=O)O)[C@](C(=O)O)(O1)[C@H](O)[C@H]2O)[C@@H](NC(C)=O)[C@H](C)Cc1ccccc1`: in test [1], the negative-log IC50 (pIC50) is 5.65.

Molecule `CC(=O)NC/C(=C\[C@@H](C)Cc1ccccc1)CC[C@]12O[C@H](C(=O)O)[C@@](O)(C(=O)O)[C@](C(=O)O)(O1)[C@H](O)[C@H]2O` showed a negative-log IC50 (pIC50) in test [1] of under 5.00. As usually defined, the ED50 is the dose that gives a 50% effect, or the effect in half of the subjects. Read a high ED50 as a need for a large dose. In test [3], `C=C(CC[C@]12O[C@H](C(=O)O)[C@@](O)(C(=O)O)[C@](C(=O)O)(O1)[C@H](OC(=O)/C=C/[C@@H](C)C[C@@H](C)CC)[C@H]2O)[C@@H](OC(C)=O)[C@H](C)Cc1ccccc1` [ZARAGOZIC ACIDS A] yielded a Decrease of 60%. The molecule further returned an ED50 in test [4] of 10 mg/kg/day.
